{"source": "PubChem BioAssay AID588588", "about": "(Sanford-Burnham Center for Chemical Genomics, 2011)", "note": "“And” between values parts separate entries of the source, which are not always exact repeats. Equal values may be shown once. The source made the active and inactive calls. How the calls were made is not given here."}
{"molecular_target": "glucose-6-phosphate dehydrogenase-6-phosphogluconolactonase (Plasmodium falciparum 3D7)", "assay": "PfG6PD enzyme inhibitors, direct NADPH readout, SAR follow-up, orthogonal assay, biochemical, end-point NADPH detection (AID 588588)", "conditions": "recombinant PfG6PD-6PGL"}
{"molecule": "O=C(Nc1nnc(S(=O)(=O)N2CCCCCC2)s1)c1ccccc1", "IC50": "> 80 µM (inactive)"}
{"molecule": "CN1CCCC1CCNC(=O)c1ccc2c(c1)NC(=O)/C(=C/c1ccccc1F)S2", "note": "(stereo not drawn)", "IC50": "> 80 µM (inactive)"}
{"molecule": "Cc1ccccc1C(=O)Nc1nnc(S(=O)(=O)N2CCCc3ccccc32)s1", "IC50": "> 80 µM (inactive)"}
{"molecule": "CCN(CC)CCNC(=O)c1ccc2c(c1)NC(=O)/C(=C\\c1ccccc1F)S2", "IC50": "> 80 µM (inactive)"}
{"molecule": "CCN1CCCC1CNC(=O)c1ccc2c(c1)NC(=O)/C(=C/c1ccccc1F)S2", "note": "(stereo not drawn)", "IC50": "> 80 µM (inactive)"}
{"molecule": "O=C(Nc1nnc(S(=O)(=O)N2CCCc3ccccc32)s1)c1cccc(F)c1", "IC50": "> 80 µM (inactive)"}
{"molecule": "Cc1ccc(C(=O)Nc2nnc(S(=O)(=O)N3CCCc4ccccc43)s2)cc1", "IC50": "> 80 µM (inactive)"}
{"molecule": "O=C(Nc1nnc(S(=O)(=O)N2CCCCC2)s1)c1cccc(F)c1", "IC50": "> 80 µM (inactive)"}
{"molecule": "COc1cccc(/C=C2/Sc3ccc(C(=O)NCCN4CCCC4)cc3NC2=O)c1", "IC50": "> 80 µM (inactive)"}
{"molecule": "Cc1cccc(C(=O)Nc2nnc(S(=O)(=O)N3CCC(C)CC3)s2)c1", "IC50": "> 80 µM (inactive)"}
{"molecule": "COc1ccc(C(=O)Nc2nnc(S(=O)(=O)N3CCCCCC3)s2)cc1", "IC50": "> 80 µM (inactive)"}
{"molecule": "CCN1CCCC1CNC(=O)c1ccc2c(c1)NC(=O)/C(=C\\c1ccc(C)cc1)S2", "note": "(stereo not drawn)", "IC50": "> 80 µM (inactive)"}
{"molecule": "O=C(Nc1nnc(S(=O)(=O)N2CCCCCC2)s1)c1ccccc1F", "IC50": "> 80 µM (inactive)"}
{"molecule": "O=C(Nc1nnc(S(=O)(=O)N2CCCCCC2)s1)C1CCCCC1", "IC50": "> 80 µM (inactive)"}
{"molecule": "CCN1CCCC1CNC(=O)c1ccc2c(c1)N(Cc1ccccc1F)C(=O)c1ccccc1S2", "note": "(stereo not drawn)", "IC50": "> 80 µM (inactive)"}
{"molecule": "O=C1COc2ccc(C(=O)NCCN3CCCCC3)cc2N1", "IC50": "> 80 µM (inactive)"}
{"molecule": "O=C(NCCN1CCCCC1)c1ccc2c(c1)NC(=O)c1ccccc1O2", "IC50": "50.3 µM"}
{"molecule": "CN(CCNC(=O)c1ccc2c(c1)NC(=O)c1ccccc1S2)C1CCCCC1", "IC50": "> 80 µM (inactive)"}
{"molecule": "COc1cccc(/C=C2/Sc3ccc(C(=O)NCCN4CCCCCC4)cc3NC2=O)c1", "IC50": "> 80 µM (inactive)"}
{"molecule": "CCN1CCCC1CNC(=O)c1ccc2c(c1)NC(=O)/C(=C/c1cccc3ccccc13)S2", "note": "(stereo not drawn)", "IC50": "> 80 µM (inactive)"}
{"molecule": "COc1ccc(/C=C2/Sc3ccc(C(=O)NCCN(C)C)cc3NC2=O)cc1", "IC50": "> 80 µM (inactive)"}
{"molecule": "CCN(CC)CCNC(=O)c1ccc2c(c1)NC(=O)c1ccccc1S2", "IC50": "67.3 µM and 69.8 µM"}
{"molecule": "CCN(CCNC(=O)c1ccc2c(c1)N(CC)C(=O)c1ccccc1S2)c1ccccc1", "IC50": "> 80 µM (inactive)"}
{"molecule": "O=C1Nc2cc(C(=O)NCCN3CCCC3)ccc2S/C1=C/c1ccccc1F", "IC50": "> 80 µM (inactive)"}
{"molecule": "CCN1CCCC1CNC(=O)c1ccc2c(c1)N(Cc1cccc(F)c1)C(=O)c1ccccc1S2", "note": "(stereo not drawn)", "IC50": "> 80 µM (inactive)"}
{"molecule": "O=C1Nc2cc(C(=O)NCc3ccccc3)ccc2S/C1=C\\c1ccccc1F", "IC50": "> 80 µM (inactive)"}
{"molecule": "CCN(CC)CCNC(=O)c1ccc2c(c1)NC(=O)/C(=C\\c1ccc(OC)cc1)S2", "IC50": "> 80 µM (inactive)"}
{"molecule": "CCOc1ccc(C(=O)Nc2nnc(S(=O)(=O)N3CCCCCC3)s2)cc1", "IC50": "> 80 µM (inactive)"}
